Legend:
HIV-1BaL = assay: Inhibition of HIV-1 infection in monocyte-derived macrophages; type: cell-based; conditions: six days of culture, p24 in supernatants, dose-dependent
Procedure: (§1) FIG. 3 represents the inhibition of HIV-1 replication in AZT-NP-treated macrophages. Monocyte-derived macrophages were infected with CCR5-tropic HIV-1Ba-L for 3 h. After several washes, increasing concentrations of AZT derivatives were added to infected macrophages for 6 days of culture. The level of virus replication was monitored in culture supernatants by the p24 antigen capture ELISA. The infection inhibition is expressed as percentage of the average of three independent experiments (A). The frequency of infected cells was determined by flow cytometry after a costaining of macrophages with mAbs anti-CD206 (a marker of macrophages) and mAbs anti-p24 which target intracellular HIV-1 (B). Addition of AZT derivatives was followed by the increase of the size of macrophages as assessed by the Forward-Scattered light parameter (FSC) in flow cytometry (C). […] Using flow cytometry, the expression of the two HIV-1 coreceptors CCR5 (E) and CXCR4 (F) was determined at the surface of AZT derivatives-treated macrophages.
After 6 days of activation or differentiation, cells were washed twice and seeded into 96-well culture plates ([…]). […] The level of virus replication was monitored by HIV-1 p24 antigen ELISA.
Following six days of infection, the frequency of HIV-1-infected cells was determined by flow cytometry to detect intracellular HIV-1 p24 molecule. […]

CCR5 = assay: Surface expression of HIV-1 coreceptor on treated macrophages (flow cytometry); type: cell-based, human
Procedure: as §1
Following six days of infection, the frequency of HIV-1-infected cells was determined by flow cytometry to detect intracellular HIV-1 p24 molecule. […] Stained cells were immediately acquired on a FACScalibur (Becton Dickinson) and analyzed with FlowJo software.

HIV-1 = conditions: DCs infected, then treated with increasing concentrations, T cells added, 6 days
Procedure: The question of the impact of NP on HIV-1 transmission from DCs to autologous T cells was addressed. DCs were first infected with HIV-1, then incubated with increasing concentrations of AZT derivatives before T cells were added.
To assess the transmission of HIV-1 from DCs to autologous T-cells, DCs were incubated into 96-well culture plates (1×10^5 cells/well) and infected with HIV-1 (1 ng p24 antigen) for 3 h at 37° C. in a 5% CO2 atmosphere. Following four washes, DCs were shortly incubated with increasing concentrations of indicated molecules or AZT (2 μM), and autologous stimulated T cells were added onto HIV-exposed DCs at DC: T-cell ratio of 1:5. Cells were cultured for 6 days. Each sample was performed in triplicate. Culture supernatants were harvested every 3 days and fresh medium with compounds was added. Supernatants were inactivated with 1% Triton X-100 and frozen at −20° C. Viral production by T lymphocytes was evaluated at the sixth day of the co-culture by measurement of p24 antigen in supernatants using capture ELISA.

[1] = test system: J774A.1 mouse macrophages; assay: [3H]-AZT-TP cellular uptake; type: cell-based; conditions: J774A.1 cells, up to 8 hour exposure
Procedure: Nanoparticles containing [methyl-^3H]-AZT-TP were prepared and purified as described above then diluted 1:10 in cell culture medium (in order to maintain cell viability above 80% as determined by MTT tests), so to have 70 nCi/well. A control solution of AZT-TP at the same final radioactivity concentration was used for comparison.
Cells were recovered from the culture flasks, counted and seeded in 6-well plates, at a surface density of 800,000 cells/well for J774A.1 and 160,000 for THP-1 using 2 mL medium per well. After 24 h incubation, the medium was withdrawn and 2 mL of AZT-TP nanoparticles or free AZT-TP were added in each well. Nanoparticles and AZT-TP were incubated with cells for 2 and 8 hours, after which the uptake was stopped by removing the cell culture medium. The cells were washed twice with PBS (Lonza) to remove loosely bound compounds and then lysed with 1 mL Solvable (Perkin-Elmer, France). The radioactivity of the supernatant medium, the washing supernatants and the cell lysate were counted. The uptake kinetics of nanoparticle AZT-TP was studied for 2 and 8 hours and compared to that of free AZT-TP.

Cc1cn([C@H]2C[C@H](N=[N+]=[N-])[C@@H](CO)O2)c(=O)[nH]c1=O [AZT, zidovudine]
production of HIV-1 by macrophages (HIV-1BaL): inhibited
expression of HIV-1 coreceptor CCR5 at macrophage surface (CCR5): did not interfere
production of HIV-1 after transmission from DCs to autologous T cells (HIV-1): inhibited

Cc1cn([C@H]2C[C@H](N=[N+]=[N-])[C@@H](COP(=O)(O)OP(=O)(O)OP(=O)(O)O)O2)c(=O)[nH]c1=O [AZT-TP]
AZT-TP uptake [1]: around 3 nmol per million cells
production of HIV-1 by macrophages (HIV-1BaL): inhibited
expression of HIV-1 coreceptor CCR5 at macrophage surface (CCR5): did not interfere
production of HIV-1 after transmission from DCs to autologous T cells (HIV-1): inhibited
